Assay results: article PMC10998878, “Inhibition of acyl-CoA binding protein (ACBP) by means of a GABAARγ2-derived peptide” (Cell Death & Disease, 2024)
Entries after “also recorded” stand apart in the source; their conditions may differ.

How the values were obtained:
[1] = test system: C57BL/6 mice; assay: Food intake after intravenous injection; type: in vivo, mouse; details: i.v., RecACBP/DBI 0.5 mg/kg + peptide 5× molar excess (pre-incubated 16 h, 4 °C), cumulative food intake 30 min
Description: Prior to experimentation, mice were subjected to 24 h starvation followed by individual housing and acclimatization in individual cages (2 h). Subsequently, mice were intravenously (i.v.) injected with recombinant ACBP/DBI protein (RecACBP/DBI) (total volume of 200 μL, 0.5 mg/kg body weight), either alone or in combination with GABAARγ2 peptides (5× molar excess). Cumulative food intake was then analyzed as previously described. Prior to i.v. injections, the RecACBP mixes were pre-incubated (16 h, 4 °C) with GABAARγ2 peptides.

[2] = test system: Huh-7 cells; assay: WST-8 conversion (metabolic activation) by Huh-7 cells; type: cell-based, human; details: RecACBP/DBI pre-incubated overnight with eicosapeptide, 4 h
Description: Media and cell culture supplements were purchased from Gibco-Invitrogen (Carlsbad, CA, USA). Plasticware was purchased from Corning B.V. Life Sciences (Schiphol-Rijk, The Netherlands). Unless reported otherwise, the cell line used in this study was cultured at standard conditions (37 °C, 5% CO2, Dulbecco’s modified Eagle’s medium containing 10% fetal bovine serum, 10 mM HEPES buffer, 100 mg/L sodium pyruvate, 100 U/mL penicillin G sodium, and 100 µg/mL streptomycin sulfate). 2-deoxy-D-glucose (# D8375) and rotenone (# R8875) were purchased from Sigma (Burlington, MA, USA). Human hepatocellular carcinoma (Huh-7) cell line was used for in vitro experiments. Cells were plated in 6- or 96-well plates and grown for 24 h before treatments.
WST-8 conversion assays were conducted utilizing the Cell Counting Kit-8 (Sigma-Aldrich, #96992). Cells were seeded in a 96-well plate at a density of 3000 cells per well and incubated overnight for adherence. Then, the culture medium was removed, and fresh medium containing the specified treatments was added to the wells. Immediately following the addition of treatments, 10 μL of CCK-8 reagent was introduced to each well. Subsequently, the cells were incubated for 4.5 h at 37 °C to facilitate the conversion of WST-8 in response to cellular activity. Following the incubation period, the absorbance at 450 nm was quantified using a VICTOR® Nivo™ microplate reader. This measurement served as an indicator of WST-8 conversion, reflecting cellular metabolic activity.
Fig. 6 Inhibition of the metabolic effects of ACBP/DBI on hepatocytes by the GABAARγ2-derived eicosapeptide. A WST-8 conversion by murine primary hepatocytes treated with increasing concentrations of recombinant ACBP/DBI protein (RecACBP/DBI) for 4 h. Hepatocytes were isolated from tamoxifen-induced Acbp/Dbi f/f or Acbp/Dbi KO full-body genetic background mice (white- or blue-colored graphs respectively). […] For statistical analysis p values are calculated by one-way ANOVA. B WST-8 conversion by control (shUNR) and ACBP/DBI-knocked down (shACBP/DBI) human Huh-7 cells treated with increasing concentrations of RecACBP/DBI for 4 h. shUNR and shACBP/DBI cells are represented by white- or blue-colored graphs respectively. […] C WST-8 conversion by Huh-7 cells treated with RecACBP/DBI or negative control (4 h). Cells were pre-treated with 2-deoxy-D-glucose (2-Deoxy-D-glu; 300 µM) or vehicle (2 h). […] D WST-8 conversion by Huh-7 cells treated with RecACBP/DBI or negative control (4 h). Cells were pre-treated with rotenone (0.5 µM) or vehicle (2 h). […] E WST-8 conversion by Huh-7 cells treated with RecACBP/DBI or negative control (4 h). Prior to administration, RecACBP/DBI was overnight pre-incubated with monoclonal antibody (α-ACBP/DBI) or isotype IgG1. […] F WST-8 conversion by Huh-7 cells treated with RecACBP/DBI or negative control (4 h). Prior to administration, RecACBP/DBI was overnight pre-incubated with GABAARγ2 (WT or F77I-mutated) eicosapeptides.

[3] = test system: native ACBP/DBI protein (mouse liver extracts); assay: Pull down / immunoprecipitation of native ACBP/DBI from liver extracts; type: binding; details: mouse liver protein extract (500 μg), peptide-coated beads, overnight 4 °C, immunoblot for ACBP
Description: The physical interaction between the native ACBP and GABAARγ2 peptides was examined by standard immunoprecipitation (IP) and immunoblotting protocols. In detail, liver protein extracts (500 μg) were immunoprecipitated on protein A/G-Sepharose beads (Merck Millipore, Burlington, MA, USA, #GE17-0618-01) coated with (1× 2× 4×) either GABAARγ2 wild type (WT) or mutated (F77I) eicosapeptide (Biosynth ltd) or its negative control (PBS). Each IP reaction was incubated overnight (4 °C) in a rotation chamber followed by three consecutive rounds of PBS washing the next day. Each washing round included a PBS resuspension of the pellet and a re-centrifugation (12,000 × g, 4 °C). Finally, beads were resuspended in 20 μL of NUPAGE 4× buffer (Life Technologies, CA, USA, #NP0008), heated at 100 °C (10 min), followed by standard immunoblotting for the ACBP protein (Abcam #ab231910).
Fig. 5 Biophysical and biochemical detection of a direct interaction between ACBP/DBI and the GABAARγ2-derived eicosapeptide. A Schematic representation of the GABAAR and the GABAARγ2-derived eicosapeptides. B Surface plasmon resonance kinetics of ACBP-GABAARγ2-derived eicosapeptide (WT and F77I) interactions. Representative ACBP immunoblot (C) from control- or GABAARγ2-immunoprecipitated samples. Anti-GABAARγ2 immunoprecipitation (IP) assay was employed in order to validate the GABAARγ2 WT peptide interaction with native ACBP (in murine hepatic protein extracts), and quantification (D). […] For statistical analysis p value (indicating statistical comparisons with the control condition) was calculated by Mann–Whitney U-test. E Anti-GABAARγ2 IP assay to address the physical interaction between GABAARγ2 peptides and murine hepatic ACBP protein. Interaction was validated using an increasing gradient of biotinylated WT/F77I peptides that were bound on the surface of streptavidin beads as part of the IP assay. […]

Sequence: INMEYTIDIFFAQTWYDRRL [GABAARγ2-EP-WT]
- effect on RecACBP/DBI-induced hyperphagy ([1]; n = 4 to 9): abolished; also recorded: efficiently blocked
- effect on RecACBP/DBI-induced hyperphagy ([1]; n = 4 to 9, listed as GABAARγ2-derived eicosapeptide): blocked appetite stimulation by recombinant ACBP/DBI in vivo
- inhibition of RecACBP/DBI-stimulated WST-8 conversion (eicosapeptides) ([2]; n = 3): inhibited the ACBP/DBI-stimulated metabolic activation of Huh7 cells; also recorded: efficiently blocked the effects of recombinant human ACBP/DBI protein on human hepatocytes
- inhibition of RecACBP/DBI-stimulated WST-8 conversion (eicosapeptides) ([2]; n = 3, listed as GABAARγ2-derived eicosapeptide): inhibited the metabolic activation of hepatocytes by recombinant ACBP/DBI protein in vitro
- pull down of endogenous/native ACBP/DBI, in words [3]: efficiently interacts with native and recombinant ACBP/DBI; also recorded: able to interact with ACBP/DBI
- pull down of endogenous/native ACBP/DBI, in words ([3]; listed as GABAARγ2-derived eicosapeptide): validated the interaction
